Laboratory results from patent US20090118332A1, “Therapeutic Agents - 551” (AstraZeneca AB, priority 2006, published 2009).

Molecular target: T1, human Fatty Acid Synthase (Homo sapiens, UniProt P49327)
T1 construct: made in house
Assay: Human FAS enzyme assay (decrease in NADPH fluorescence)
Type: biochemical
Conditions: % inhibition at a concentration of 100 μmolar
How it was run: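 In-house human FAS was preincubated with compound and NADPH for 15 min at room temperature in 0.1 M Tris pH 7.5 with EDTA, glutathione and BSA. Malonyl CoA and acetyl CoA (500 μM and 150 μM in the added mix) were then added for 60 min. IC50 came from time-zero-subtracted NADPH fluorescence (340/460 nm).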

T1 sequence (P49327 whole entry): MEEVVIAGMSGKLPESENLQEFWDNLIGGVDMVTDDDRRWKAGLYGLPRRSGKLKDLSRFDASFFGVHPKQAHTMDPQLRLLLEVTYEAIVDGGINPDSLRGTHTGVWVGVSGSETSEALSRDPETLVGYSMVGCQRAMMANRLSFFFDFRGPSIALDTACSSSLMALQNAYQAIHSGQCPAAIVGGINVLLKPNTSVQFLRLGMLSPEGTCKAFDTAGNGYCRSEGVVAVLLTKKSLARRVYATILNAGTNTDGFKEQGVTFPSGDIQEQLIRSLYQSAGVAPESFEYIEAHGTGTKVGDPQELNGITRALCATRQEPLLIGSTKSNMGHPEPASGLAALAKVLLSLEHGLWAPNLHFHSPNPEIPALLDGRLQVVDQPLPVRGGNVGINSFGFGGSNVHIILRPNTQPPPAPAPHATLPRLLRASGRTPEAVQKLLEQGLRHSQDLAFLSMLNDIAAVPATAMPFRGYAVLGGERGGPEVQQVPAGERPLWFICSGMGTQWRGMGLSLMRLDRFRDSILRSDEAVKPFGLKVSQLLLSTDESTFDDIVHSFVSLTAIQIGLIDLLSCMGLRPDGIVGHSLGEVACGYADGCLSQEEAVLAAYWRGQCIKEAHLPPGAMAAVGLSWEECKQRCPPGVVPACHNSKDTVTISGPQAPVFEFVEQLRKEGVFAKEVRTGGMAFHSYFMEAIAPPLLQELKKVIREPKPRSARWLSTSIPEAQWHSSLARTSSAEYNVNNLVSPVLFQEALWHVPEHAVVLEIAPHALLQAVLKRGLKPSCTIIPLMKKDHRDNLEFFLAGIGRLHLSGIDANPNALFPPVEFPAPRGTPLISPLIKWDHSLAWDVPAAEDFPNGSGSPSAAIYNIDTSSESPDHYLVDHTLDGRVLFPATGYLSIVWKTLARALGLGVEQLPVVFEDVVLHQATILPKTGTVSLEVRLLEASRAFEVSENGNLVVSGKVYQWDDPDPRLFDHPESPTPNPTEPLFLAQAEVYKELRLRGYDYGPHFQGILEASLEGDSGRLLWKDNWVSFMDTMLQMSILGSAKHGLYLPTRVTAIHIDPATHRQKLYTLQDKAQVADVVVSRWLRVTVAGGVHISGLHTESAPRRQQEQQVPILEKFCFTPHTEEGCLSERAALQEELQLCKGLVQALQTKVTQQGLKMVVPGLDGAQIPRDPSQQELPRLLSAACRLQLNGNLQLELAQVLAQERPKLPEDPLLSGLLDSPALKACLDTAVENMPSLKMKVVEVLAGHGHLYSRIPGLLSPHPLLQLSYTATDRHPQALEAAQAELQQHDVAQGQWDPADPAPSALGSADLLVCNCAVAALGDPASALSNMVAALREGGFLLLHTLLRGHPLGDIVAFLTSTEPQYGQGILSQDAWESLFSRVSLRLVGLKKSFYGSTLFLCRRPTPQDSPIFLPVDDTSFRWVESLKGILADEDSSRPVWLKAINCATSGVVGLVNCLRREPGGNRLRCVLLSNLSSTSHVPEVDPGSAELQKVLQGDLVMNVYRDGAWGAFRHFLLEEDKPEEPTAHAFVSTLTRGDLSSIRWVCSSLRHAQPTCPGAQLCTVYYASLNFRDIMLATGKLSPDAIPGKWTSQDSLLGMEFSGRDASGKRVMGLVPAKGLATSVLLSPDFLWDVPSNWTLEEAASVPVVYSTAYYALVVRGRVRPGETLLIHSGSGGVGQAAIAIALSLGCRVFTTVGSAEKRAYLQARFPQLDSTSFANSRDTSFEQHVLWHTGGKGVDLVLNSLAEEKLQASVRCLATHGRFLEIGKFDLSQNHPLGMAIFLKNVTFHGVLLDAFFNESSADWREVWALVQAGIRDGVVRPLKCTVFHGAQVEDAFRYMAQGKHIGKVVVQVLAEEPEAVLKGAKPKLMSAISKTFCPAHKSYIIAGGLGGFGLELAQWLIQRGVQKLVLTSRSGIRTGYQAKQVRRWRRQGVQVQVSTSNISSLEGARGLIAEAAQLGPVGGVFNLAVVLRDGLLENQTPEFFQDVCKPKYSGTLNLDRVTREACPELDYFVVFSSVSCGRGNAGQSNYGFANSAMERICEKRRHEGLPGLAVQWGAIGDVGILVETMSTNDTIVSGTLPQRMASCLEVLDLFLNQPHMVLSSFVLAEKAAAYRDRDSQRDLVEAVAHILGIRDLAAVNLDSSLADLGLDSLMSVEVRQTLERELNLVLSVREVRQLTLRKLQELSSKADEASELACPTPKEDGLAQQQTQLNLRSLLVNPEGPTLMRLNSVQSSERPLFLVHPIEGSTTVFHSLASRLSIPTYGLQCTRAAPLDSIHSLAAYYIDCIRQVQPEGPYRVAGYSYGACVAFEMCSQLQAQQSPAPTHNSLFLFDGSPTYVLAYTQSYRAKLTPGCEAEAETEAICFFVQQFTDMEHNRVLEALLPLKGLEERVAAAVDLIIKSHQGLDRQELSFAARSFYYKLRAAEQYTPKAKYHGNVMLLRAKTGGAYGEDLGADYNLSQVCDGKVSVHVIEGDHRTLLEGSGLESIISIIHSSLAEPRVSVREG

SMILES	inhibition at 100 µM
Cc1ccc(NC(=O)N[C@H](C)c2ccccc2)cc1C(=O)N1CCC(c2ccc(C#N)cc2)CC1 [Example 37, 3-[3-[4-(4-cyanophenyl)piperidine-1-carbonyl]-4-methyl-phenyl]-1-[(1R)-1-phenylethyl]urea]	74.3%
Cc1ccc(NC(=O)N[C@@H](C)c2ccccc2)cc1C(=O)N1CCC(c2ccc(C#N)cc2)CC1 [Example 38, 3-[3-[4-(4-cyanophenyl)piperidine-1-carbonyl]-4-methyl-phenyl]-1-[(1S)-1-phenylethyl]urea]	76.6%
Cc1ccc(C(=O)N2CCC(O)(c3ccc(Br)cc3)CC2)cc1NC(=O)NC(C)C [Example 39, 1-[5-[4-(4-bromophenyl)-4-hydroxy-piperidine-1-carbonyl]-2-methyl-phenyl]-3-propan-2-yl-urea]	79.1%
Cc1ccc(C(=O)N2CCC(O)(c3ccc(Br)cc3)CC2)cc1NC(=O)NCc1ccccc1 [Example 40, 3-benzyl-1-[5-[4-(4-bromophenyl)-4-hydroxy-piperidine-1-carbonyl]-2-methyl-phenyl]urea]	71.5%
Cc1ccc(C(=O)N2CCC(c3ccc(C#N)cc3)CC2)cc1NC(=O)NC1CCN(Cc2ccccc2)CC1 [Example 41, 3-(1-benzyl-4-piperidyl)-1-[5-[4-(4-cyanophenyl)piperidine-1-carbonyl]-2-methyl-phenyl]urea]	94.4%
Cc1ccc(C(=O)N2CCC(c3ccc(C#N)cc3)CC2)cc1NC(=O)NCC(C)C [Example 42, 1-[5-[4-(4-cyanophenyl)piperidine-1-carbonyl]-2-methyl-phenyl]-3-(2-methylpropyl)urea]	83.8%
C#CCNC(=O)Nc1cc(C(=O)N2CCC(c3ccc(C#N)cc3)CC2)ccc1C [Example 43, 1-[5-[4-(4-cyanophenyl)piperidine-1-carbonyl]-2-methyl-phenyl]-3-prop-2-ynyl-urea]	88.3%
COc1cc(CNC(=O)Nc2cc(C(=O)N3CCC(c4ccc(C#N)cc4)CC3)ccc2C)cc(OC)c1OC [Example 44, 1-[5-[4-(4-cyanophenyl)piperidine-1-carbonyl]-2-methyl-phenyl]-3-[(3,4,5-trimethoxyphenyl)methyl]urea]	87.9%
COC(=O)CCNC(=O)Nc1cc(C(=O)N2CCC(c3ccc(C#N)cc3)CC2)ccc1C [Example 45, methyl 3-[[5-[4-(4-cyanophenyl)piperidine-1-carbonyl]-2-methyl-phenyl]carbamoylamino]propanoate]	91.8%
CC(C)NC(=O)Nc1cccc(C(=O)N2CCC(c3ccc(C#N)cc3)CC2)c1 [Example 46, 3-[3-[4-(4-cyanophenyl)piperidine-1-carbonyl]phenyl]-1-propan-2-yl-urea]	90.3%
Cc1ccc(NC(=O)NCc2cccc(C#N)c2)cc1C(=O)N1CCC(c2ccc(C#N)cc2)CC1 [Example 47, 3-[(3-cyanophenyl)methyl]-1-[3-[4-(4-cyanophenyl)piperidine-1-carbonyl]-4-methyl-phenyl]urea]	77.4%
Cc1ccc(NC(=O)N[C@H]2CC[C@@H](O)CC2)cc1C(=O)N1CCC(c2ccc(C#N)cc2)CC1 [Example 48, 1-[3-[4-(4-cyanophenyl)piperidine-1-carbonyl]-4-methyl-phenyl]-3-cis-(4-hydroxycyclohexyl)urea]	93.7%
Cc1ccc(NC(=O)N[C@H]2CC[C@H](O)CC2)cc1C(=O)N1CCC(c2ccc(C#N)cc2)CC1 [Example 49, 1-[3-[4-(4-cyanophenyl)piperidine-1-carbonyl]-4-methyl-phenyl]-3-trans-(4-hydroxycyclohexyl)urea]	98.1%
Cc1ccc(C(=O)N2CCC(O)(c3ccc(C#N)cc3)CC2)cc1NC(=O)NC(C)C [Example 50, 1-[5-[4-(4-cyanophenyl)-4-hydroxy-piperidine-1-carbonyl]-2-methyl-phenyl]-3-propan-2-yl-urea]	81.2%
Cc1ccc(C(=O)N2CCC(c3ccc(C#N)cc3)CC2)cc1NC(=O)NCCCC(=O)OC(C)(C)C [Example 51, tert-butyl 4-[[5-[4-(4-cyanophenyl)piperidine-1-carbonyl]-2-methyl-phenyl]carbamoylamino]butanoate]	101%
Cc1ccc(C(=O)N2CCC(c3ccc(C#N)cc3)CC2)cc1NC(=O)NCc1ccccn1 [Example 52, 1-[5-[4-(4-cyanophenyl)piperidine-1-carbonyl]-2-methyl-phenyl]-3-(pyridin-2-ylmethyl)urea]	94.4%
CCC(CC)NC(=O)Nc1cc(C(=O)N2CCC(c3ccc(C#N)cc3)CC2)ccc1C [Example 53, 3-[5-[4-(4-cyanophenyl)piperidine-1-carbonyl]-2-methyl-phenyl]-1-pentan-3-yl-urea]	90.8%
Cc1cccc(CNC(=O)Nc2cc(C(=O)N3CCC(c4ccc(C#N)cc4)CC3)ccc2C)c1 [Example 54, 3-[5-[4-(4-cyanophenyl)piperidine-1-carbonyl]-2-methyl-phenyl]-1-[(3-methylphenyl)methyl]urea]	92.2%

SMILES	inhibition at 100 µM
CC(=O)NCCNC(=O)Nc1cc(C(=O)N2CCC(c3ccc(C#N)cc3)CC2)ccc1C [Example 55, N-[2-[[5-[4-(4-cyanophenyl)piperidine-1-carbonyl]-2-methyl-phenyl]carbamoylamino]ethyl]acetamide]	93.2%
Cc1ccc(C(=O)N2CCC(c3ccc(C#N)cc3)CC2)cc1NC(=O)NCc1ccc(F)c(F)c1 [Example 56, 1-[5-[4-(4-cyanophenyl)piperidine-1-carbonyl]-2-methyl-phenyl]-3-[(3,4-difluorophenyl)methyl]urea]	105%
Cc1ccc(C(=O)N2CCC(c3ccc(C#N)cc3)CC2)cc1NC(=O)NCCc1ccc(S(N)(=O)=O)cc1 [Example 57, 1-[5-[4-(4-cyanophenyl)piperidine-1-carbonyl]-2-methyl-phenyl]-3-[2-(4-sulfamoylphenyl)ethyl]urea]	96.8%
Cc1ccc(C(=O)N2CCC(c3ccc(C#N)cc3)CC2)cc1NC(=O)NCC(N)=O [Example 58, 2-[[5-[4-(4-cyanophenyl)piperidine-1-carbonyl]-2-methyl-phenyl]carbamoylamino]acetamide]	89.9%
Cc1ccc(C(=O)N2CCC(c3ccc(C#N)cc3)CC2)cc1NC(=O)NC(C)(C)CNc1ccccc1 [Example 59, 3-(1-anilino-2-methyl-propan-2-yl)-1-[5-[4-(4-cyanophenyl)piperidine-1-carbonyl]-2-methyl-phenyl]urea]	87.2%
Cc1ccc(C(=O)N2CCC(c3ccc(C#N)cc3)CC2)cc1NC(=O)NCCc1ccccn1 [Example 60, 1-[5-[4-(4-cyanophenyl)piperidine-1-carbonyl]-2-methyl-phenyl]-3-(2-pyridin-2-ylethyl)urea]	95.3%
COc1ccccc1CCNC(=O)Nc1cc(C(=O)N2CCC(c3ccc(C#N)cc3)CC2)ccc1C [Example 61, 1-[5-[4-(4-cyanophenyl)piperidine-1-carbonyl]-2-methyl-phenyl]-3-[2-(2-methoxyphenyl)ethyl]urea]	84.8%
Cc1ccc(C(=O)N2CCC(c3ccc(C#N)cc3)CC2)cc1NC(=O)NCCc1ccncc1 [Example 62, 1-[5-[4-(4-cyanophenyl)piperidine-1-carbonyl]-2-methyl-phenyl]-3-(2-pyridin-4-ylethyl)urea]	101%
Cc1ccc(C(=O)N2CCC(c3ccc(C#N)cc3)CC2)cc1NC(=O)NCCc1cccs1 [Example 63, 1-[5-[4-(4-cyanophenyl)piperidine-1-carbonyl]-2-methyl-phenyl]-3-(2-thiophen-2-ylethyl)urea]	93.4%
COc1ccc(CCNC(=O)Nc2cc(C(=O)N3CCC(c4ccc(C#N)cc4)CC3)ccc2C)cc1 [Example 64, 1-[5-[4-(4-cyanophenyl)piperidine-1-carbonyl]-2-methyl-phenyl]-3-[2-(4-methoxyphenyl)ethyl]urea]	94%
COc1cccc(CCNC(=O)Nc2cc(C(=O)N3CCC(c4ccc(C#N)cc4)CC3)ccc2C)c1 [Example 65, 1-[5-[4-(4-cyanophenyl)piperidine-1-carbonyl]-2-methyl-phenyl]-3-[2-(3-methoxyphenyl)ethyl]urea]	99.8%
Cc1ccc(C(=O)N2CCC(c3ccc(C#N)cc3)CC2)cc1NC(=O)NCCc1cccnc1 [Example 66, 1-[5-[4-(4-cyanophenyl)piperidine-1-carbonyl]-2-methyl-phenyl]-3-(2-pyridin-3-ylethyl)urea]	91.5%
Cc1ccc(C(=O)N2CCC(c3ccc(C#N)cc3)CC2)cc1NC(=O)NCCc1c(C)noc1C [Example 67, 1-[5-[4-(4-cyanophenyl)piperidine-1-carbonyl]-2-methyl-phenyl]-3-[2-(3,5-dimethyl-1,2-oxazol-4-yl)ethyl]urea]	96.9%
Cc1ccc(C(=O)N2CCC(c3ccc(C#N)cc3)CC2)cc1NC(=O)NCCc1cccc(F)c1 [Example 68, 1-[5-[4-(4-cyanophenyl)piperidine-1-carbonyl]-2-methyl-phenyl]-3-[2-(3-fluorophenyl)ethyl]urea]	102%
Cc1ccc(C(=O)N2CCC(c3ccc(C#N)cc3)CC2)cc1NC(=O)NCCCCNC(=O)OC(C)(C)C [Example 69, tert-butyl N-[4-[[5-[4-(4-cyanophenyl)piperidine-1-carbonyl]-2-methyl-phenyl]carbamoylamino]butyl]carbamate]	87.9%
Cc1ccc(C(=O)N2CCC(c3ccc(C#N)cc3)CC2)cc1NC(=O)NCC(C)(C)C [Example 71, 1-[5-[4-(4-cyanophenyl)piperidine-1-carbonyl]-2-methyl-phenyl]-3-(2,2-dimethylpropyl)urea]	94.2%
COC(=O)CNC(=O)Nc1cc(C(=O)N2CCC(c3ccc(C#N)cc3)CC2)ccc1C [Example 72, Methyl 2-[[5-[4-(4-cyanophenyl)piperidine-1-carbonyl]-2-methyl-phenyl]carbamoylamino]acetate]	80.1%
